# Results taken from ChEMBL document CHEMBL2157891 (J Med Chem, 2012).
# Active and inactive are the calls of the source. The calls are words filed in the database; no cut-off is given here.
# Experiments:
# [1] = test system: MDA-MB-231; experiment: cells; conditions: Homo sapiens, MDA-MB-231, 96 h
# [2] = test system: SK-OV-3; experiment: cells; conditions: Homo sapiens, SK-OV-3, 96 h
# [3] = molecular target: Baculoviral IAP repeat-containing protein 2 (Homo sapiens, UniProt Q13490); experiment: Binding affinity to BIR3 domain of cIAP1 by fluorescence polarization assay
# [4] = test system: MDA-MB-231; experiment: Induction of apoptosis in human MDA-MB-231 cells assessed as caspase 8 cleavage at 3 nM after 24 hrs by Western blot analysis; assay type: functional, cell-based
# [5] = test system: SK-OV-3; experiment: Induction of apoptosis in human SKOV3 cells assessed as PARP cleavage at 3 nM after 24 hrs by Western blot analysis; assay type: functional, cell-based
# [6] = test system: SK-OV-3; experiment: Induction of apoptosis in human SKOV3 cells assessed as caspase 3 cleavage at 3 nM after 24 hrs by Western blot analysis; assay type: functional, cell-based
# [7] = test system: SK-OV-3; experiment: Induction of apoptosis in human SKOV3 cells assessed as caspase 8 cleavage at 3 nM after 24 hrs by Western blot analysis; assay type: functional, cell-based
# [8] = test system: MDA-MB-231; experiment: Induction of apoptosis in human MDA-MB-231 cells assessed as PARP cleavage at 3 nM after 24 hrs by Western blot analysis; assay type: functional, cell-based
# [9] = test system: MDA-MB-231; experiment: Induction of apoptosis in human MDA-MB-231 cells assessed as caspase 3 cleavage at 3 nM after 24 hrs by Western blot analysis; assay type: functional, cell-based
# [10] = test system: SK-OV-3; experiment: Induction of apoptosis in human SKOV3 cells assessed as PARP cleavage at 300 nM after 24 hrs by Western blot analysis; assay type: functional, cell-based
# [11] = test system: SK-OV-3; experiment: Induction of apoptosis in human SKOV3 cells assessed as caspase 3 cleavage at 10 nM after 24 hrs by Western blot analysis; assay type: functional, cell-based
# [12] = test system: SK-OV-3; experiment: Induction of apoptosis in human SKOV3 cells assessed as caspase 8 cleavage at 10 nM after 24 hrs by Western blot analysis; assay type: functional, cell-based
# [13] = test system: MDA-MB-231; experiment: Induction of apoptosis in human MDA-MB-231 cells assessed as caspase 3 cleavage at 10 nM after 24 hrs by Western blot analysis; assay type: functional, cell-based
# [14] = test system: MDA-MB-231; experiment: Induction of apoptosis in human MDA-MB-231 cells assessed as PARP cleavage at 300 nM after 24 hrs by Western blot analysis; assay type: functional, cell-based
# [15] = test system: MDA-MB-231; experiment: Induction of apoptosis in human MDA-MB-231 cells assessed as caspase 8 cleavage at 10 nM after 24 hrs by Western blot analysis; assay type: functional, cell-based
compound,measurement,setting,value
CN[C@@H](C)C(=O)N[C@H]1CN(C(=O)CCC(=O)N2CC[C@H]3CC[C@@H](C(=O)NC(c4ccccc4)c4ccccc4)N3C(=O)[C@@H](NC(=O)[C@H](C)NC)C2)CC[C@H]2CC[C@@H](C(=O)NC(c3ccccc3)c3ccccc3)N2C1=O,IC50,[1],13.8 nM
same,IC50,[2],27 nM
CN[C@@H](C)C(=O)N[C@H]1CN(C(=O)CCCCOCCCCC(=O)N2CC[C@H]3CC[C@@H](C(=O)NC(c4ccccc4)c4ccccc4)N3C(=O)[C@@H](NC(=O)[C@H](C)NC)C2)CC[C@H]2CC[C@@H](C(=O)NC(c3ccccc3)c3ccccc3)N2C1=O,IC50,[1],4.7 nM
same,IC50,[2],4.7 nM
CN[C@@H](C)C(=O)N[C@H]1CCCC[C@H]2CC[C@@H](C(=O)N[C@@H](c3ccccc3)c3cn(CCCCc4ccc(CCCCn5cc([C@@H](NC(=O)[C@@H]6CC[C@@H]7CCCC[C@H](NC(=O)[C@H](C)NC)C(=O)N76)c6ccccc6)nn5)cc4)nn3)N2C1=O,Ki,[3],0.5 nM
same,IC50,[1],6.8 nM
same,IC50,[2],16 nM
CN[C@@H](C)C(=O)N[C@H]1CN(C(=O)CCCCCCCCCCC(=O)N2CC[C@H]3CC[C@@H](C(=O)NC(c4ccccc4)c4ccccc4)N3C(=O)[C@@H](NC(=O)[C@H](C)NC)C2)CC[C@H]2CC[C@@H](C(=O)NC(c3ccccc3)c3ccccc3)N2C1=O,IC50,[1],10.6 nM
same,IC50,[2],12 nM
CN[C@@H](C)C(=O)N[C@H]1CN(C(=O)CCCCc2ccc(CCCCC(=O)N3CC[C@H]4CC[C@@H](C(=O)NC(c5ccccc5)c5ccccc5)N4C(=O)[C@@H](NC(=O)[C@H](C)NC)C3)cc2)CC[C@H]2CC[C@@H](C(=O)NC(c3ccccc3)c3ccccc3)N2C1=O,Activity,[4],Active
same,Activity,[5],Active
same,Activity,[6],Active
same,Activity,[7],Active
same,IC50,[1],3.4 nM
same,Activity,[8],Active
same,IC50,[2],9.6 nM
same,Activity,[9],Active
CN[C@@H](C)C(=O)N[C@H]1CCCC[C@H]2CC[C@@H](C(=O)N[C@@H](c3ccccc3)c3cn(CCCCCCCCn4cc([C@@H](NC(=O)[C@@H]5CC[C@@H]6CCCC[C@H](NC(=O)[C@H](C)NC)C(=O)N65)c5ccccc5)nn4)nn3)N2C1=O,IC50,[3],2.8 nM
same,Ki,[3],< 0.5 nM
CN[C@@H](C)C(=O)N[C@H]1CN(C(=O)CCCCCCCCC(=O)N2CC[C@H]3CC[C@@H](C(=O)NC(c4ccccc4)c4ccccc4)N3C(=O)[C@@H](NC(=O)[C@H](C)NC)C2)CC[C@H]2CC[C@@H](C(=O)NC(c3ccccc3)c3ccccc3)N2C1=O,Activity,[4],Active
same,Activity,[5],Active
same,Activity,[6],Active
same,Activity,[7],Active
same,IC50,[1],7.5 nM
same,Activity,[8],Active
same,IC50,[2],3.1 nM
same,Activity,[9],Active
CN[C@@H](C)C(=O)N[C@H]1CN(C(=O)CCCCC(=O)N2CC[C@H]3CC[C@@H](C(=O)NC(c4ccccc4)c4ccccc4)N3C(=O)[C@@H](NC(=O)[C@H](C)NC)C2)CC[C@H]2CC[C@@H](C(=O)NC(c3ccccc3)c3ccccc3)N2C1=O,IC50,[1],14.8 nM
same,IC50,[2],9.9 nM
CN[C@@H](C)C(=O)N[C@H]1CN(C(C)=O)CC[C@H]2CC[C@@H](C(=O)NC(c3ccccc3)c3ccccc3)N2C1=O,Activity,[10],Active
same,Activity,[11],Active
same,IC50,[1],115 nM
same,Activity,[12],Active
same,Activity,[13],Active
same,IC50,[2],250 nM
same,Activity,[14],Active
same,Activity,[15],Active
CN[C@@H](C)C(=O)N[C@H]1CN(C(=O)c2ccc(C(=O)N3CC[C@H]4CC[C@@H](C(=O)NC(c5ccccc5)c5ccccc5)N4C(=O)[C@@H](NC(=O)[C@H](C)NC)C3)cc2)CC[C@H]2CC[C@@H](C(=O)NC(c3ccccc3)c3ccccc3)N2C1=O,IC50,[1],50.8 nM
same,IC50,[2],180 nM
CN[C@@H](C)C(=O)N[C@H]1CN(C(=O)CCCCCCC(=O)N2CC[C@H]3CC[C@@H](C(=O)NC(c4ccccc4)c4ccccc4)N3C(=O)[C@@H](NC(=O)[C@H](C)NC)C2)CC[C@H]2CC[C@@H](C(=O)NC(c3ccccc3)c3ccccc3)N2C1=O,IC50,[1],17.2 nM
same,IC50,[2],11 nM
